Results reported in US20120094998A1, “Oligomer-Protein Tyrosine Kinase Inhibitor Conjugates” (Nektar Therapeutics, priority 2009, published 2012).
Values after ≈ are worked out from the molar mass of the structure shown.

Tests used:
[1] = target: ABL (Homo sapiens, UniProt P00519); test: Off-chip mobility-shift kinase assay (Caliper LABCHIP), ABL; details: for ABL AVG % Activity at 1.0E−09: concentration 1.0E−09; for ABL AVG % Activity at 1.0E−10: concentration 1.0E−10; for ABL AVG % Activity at 1.0E−11: concentration 1.0E−11; for ABL AVG % Activity at 3.0E−09: concentration 3.0E−09; for ABL AVG % Activity at 3.0E−10: concentration 3.0E−10; for ABL AVG % Activity at 3.0E−11: concentration 3.0E−11
Sequence of ABL (P00519 whole entry): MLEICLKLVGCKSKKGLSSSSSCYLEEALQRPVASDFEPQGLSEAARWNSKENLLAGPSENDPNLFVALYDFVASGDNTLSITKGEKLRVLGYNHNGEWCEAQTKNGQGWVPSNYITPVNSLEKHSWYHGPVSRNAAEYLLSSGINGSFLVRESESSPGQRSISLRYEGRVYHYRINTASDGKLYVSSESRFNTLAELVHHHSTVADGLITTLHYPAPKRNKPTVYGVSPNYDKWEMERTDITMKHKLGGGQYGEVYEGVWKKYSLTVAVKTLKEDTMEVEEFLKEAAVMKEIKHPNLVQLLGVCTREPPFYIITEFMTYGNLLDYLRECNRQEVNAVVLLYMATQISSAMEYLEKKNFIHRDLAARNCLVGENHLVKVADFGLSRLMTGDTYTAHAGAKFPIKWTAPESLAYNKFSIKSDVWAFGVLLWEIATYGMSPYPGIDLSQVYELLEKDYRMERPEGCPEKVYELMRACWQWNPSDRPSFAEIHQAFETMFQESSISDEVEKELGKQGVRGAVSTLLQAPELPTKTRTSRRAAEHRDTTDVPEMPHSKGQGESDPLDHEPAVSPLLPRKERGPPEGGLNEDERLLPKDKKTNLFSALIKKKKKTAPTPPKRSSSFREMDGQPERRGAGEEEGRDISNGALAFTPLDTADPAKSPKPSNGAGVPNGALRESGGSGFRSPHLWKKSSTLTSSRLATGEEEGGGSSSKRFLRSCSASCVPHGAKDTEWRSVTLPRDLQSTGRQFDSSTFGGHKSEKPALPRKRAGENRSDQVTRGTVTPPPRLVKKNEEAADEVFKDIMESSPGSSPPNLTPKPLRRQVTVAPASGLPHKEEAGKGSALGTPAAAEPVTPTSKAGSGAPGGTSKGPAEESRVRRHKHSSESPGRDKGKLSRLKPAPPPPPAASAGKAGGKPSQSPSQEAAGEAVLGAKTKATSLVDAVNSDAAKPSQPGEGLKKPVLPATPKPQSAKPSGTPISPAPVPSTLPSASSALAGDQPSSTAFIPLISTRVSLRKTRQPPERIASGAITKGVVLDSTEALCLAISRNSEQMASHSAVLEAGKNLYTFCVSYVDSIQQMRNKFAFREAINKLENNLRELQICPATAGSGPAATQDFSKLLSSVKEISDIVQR

[2] = Thermodynamic solubility; type: physicochemical; details: aqueous buffer, thermodynamic from solid; phosphate buffered saline, pH 7.4; ambient temperature overnight
Method: Test compound (2.5 mg of solid; n=1) is weighed in a clear glass vial and buffer (0.5 mL) is added (phosphate buffered saline, pH 7.4). The solution is agitated at ambient temperature overnight using a vial roller system. […] Duplicate aliquots (50 μL) are sampled from the filtrate and diluted with one volume of 0.1 N hydrochloric acid and methanol (1:1 v/v) before analysis by HPLC-UV. […] The concentration of test compound in the filtrate is quantified relative to the concentration standard.
Analysis is performed using a gradient HPLC-UV system with a total cycle time of six minutes.

[3] = Caco-2 permeability (bi-directional; pH 7.4/pH 7.4); type: in vitro ADME; details: human; for Papp A→B at 120 min, 10 μM: Caco-2, pH 7.4, read-out: Permeability (cm^2/s × 10^6)
Method: Caco-2 cells are used as an in vitro model of the human intestinal epithelium and permit assessment of the intestinal permeability of potential drugs. Test compound is added to either the apical or basolateral side of a confluent monolayer of Caco-2 cells and permeability is measured by monitoring the appearance of the test compound on the opposite side of the membrane using LC-MS/MS. Apparent permeability (Papp) coefficients, efflux ratio for the test compound and recovery values were determined.
To measure the permeability of test compound in the apical to basolateral (A-B) and basolateral to apical (B-A) direction across Caco-2 cells.
Caco-2 cells obtained from the ATCC are used between passage numbers 40-60. Cells are seeded on to Millipore Multiscreen Caco-2 plates at 1×10^5 cells/cm^2. They are cultured for 20 days in DMEM and media is changed every two or three days. On day 20 the permeability study is performed.
On day 20, the monolayers are prepared by rinsing both basolateral and apical surfaces twice with HBSS at 37° C. Cells are then incubated with HBSS in both apical and basolateral compartments for 40 min to stabilize physiological parameters. HBSS is then removed from the apical compartment and replaced with test compound dosing solutions. […] The fluorescent integrity marker lucifer yellow is also included in the dosing solution. Analytical standards are made from dosing solutions. The apical compartment inserts are then placed into ‘companion’ plates containing fresh HBSS. For basolateral to apical (B-A) permeability determination the experiment is initiated by replacing buffer in the inserts then placing them in companion plates containing dosing solutions. At 120 minutes the companion plate is removed and apical and basolateral samples diluted for analysis by LC-MS/MS. Test compound permeability was assessed in duplicate. On each plate, compounds of known permeability characteristics were run as controls.
Test and control compounds were quantified by LC-MS/MS cassette analysis using a 5-point calibration with appropriate dilution of the samples. Cyprotex generic analytical conditions were used. The starting concentration (C0) and experimental recovery were calculated from both apical and basolateral compartment concentrations.
The integrity of the monolayers throughout the experiment was checked by monitoring lucifer yellow permeation using fluorimetric analysis. Lucifer yellow permeation is low if monolayers have not been damaged. […] If lucifer yellow Papp values are above QC limits in both replicate wells for a test compound, the compound was re-tested.
Data Analysis: The permeability coefficient for each compound (Papp) is calculated from the following equation: […]
wherein dQ/dt is the rate of permeation of the drug across the cells, C0 is the donor compartment concentration at time zero and A is the area of the cell monolayer. C0 is obtained from analysis of donor and receiver compartments at the end of the incubation period. It is assumed that all of the test compound measured after 120 minutes incubation was initially present in the donor compartment at 0 minutes. An efflux ratio (ER) is derived as follows:
Talinolol (a known P-gp substrate) is also included as a control compound to assess whether functional P-gp is present in the Caco-2 cell monolayer.

[4] = target: PDGFRβ (Homo sapiens, UniProt P09619); test: Off-chip mobility-shift kinase assay (Caliper LABCHIP), PDGFR
Sequence of PDGFRβ (P09619 33-1106): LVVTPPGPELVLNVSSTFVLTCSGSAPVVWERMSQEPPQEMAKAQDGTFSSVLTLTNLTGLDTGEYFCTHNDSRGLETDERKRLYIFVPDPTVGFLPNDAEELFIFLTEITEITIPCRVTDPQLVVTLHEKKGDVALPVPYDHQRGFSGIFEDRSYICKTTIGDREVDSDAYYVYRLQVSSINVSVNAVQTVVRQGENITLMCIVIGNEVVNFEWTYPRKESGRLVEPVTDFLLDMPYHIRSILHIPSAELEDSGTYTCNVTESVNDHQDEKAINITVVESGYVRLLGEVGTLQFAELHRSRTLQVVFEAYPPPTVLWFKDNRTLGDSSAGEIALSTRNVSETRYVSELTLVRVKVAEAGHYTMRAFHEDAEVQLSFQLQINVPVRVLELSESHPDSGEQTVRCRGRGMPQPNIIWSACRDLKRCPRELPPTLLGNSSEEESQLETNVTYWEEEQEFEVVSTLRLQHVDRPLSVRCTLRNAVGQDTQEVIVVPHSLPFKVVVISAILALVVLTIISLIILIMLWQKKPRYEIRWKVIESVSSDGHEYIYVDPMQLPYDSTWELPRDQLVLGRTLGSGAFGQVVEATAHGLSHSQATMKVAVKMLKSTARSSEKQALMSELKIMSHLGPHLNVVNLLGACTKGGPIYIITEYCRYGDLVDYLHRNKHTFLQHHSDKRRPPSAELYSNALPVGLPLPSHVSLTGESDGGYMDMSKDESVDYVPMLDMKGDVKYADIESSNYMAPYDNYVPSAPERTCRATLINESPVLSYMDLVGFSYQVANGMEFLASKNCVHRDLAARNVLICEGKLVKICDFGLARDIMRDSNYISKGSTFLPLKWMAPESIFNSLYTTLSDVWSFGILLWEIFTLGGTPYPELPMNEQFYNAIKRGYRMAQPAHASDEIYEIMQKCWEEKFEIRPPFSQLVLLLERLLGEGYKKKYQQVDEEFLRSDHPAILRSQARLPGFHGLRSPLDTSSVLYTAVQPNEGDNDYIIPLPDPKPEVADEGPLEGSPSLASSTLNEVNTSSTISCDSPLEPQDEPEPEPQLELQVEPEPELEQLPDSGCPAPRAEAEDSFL

[5] = target: cKIT (Homo sapiens, UniProt P10721); test: Off-chip mobility-shift kinase assay (Caliper LABCHIP), C-kit
Sequence of cKIT (P10721 26-976): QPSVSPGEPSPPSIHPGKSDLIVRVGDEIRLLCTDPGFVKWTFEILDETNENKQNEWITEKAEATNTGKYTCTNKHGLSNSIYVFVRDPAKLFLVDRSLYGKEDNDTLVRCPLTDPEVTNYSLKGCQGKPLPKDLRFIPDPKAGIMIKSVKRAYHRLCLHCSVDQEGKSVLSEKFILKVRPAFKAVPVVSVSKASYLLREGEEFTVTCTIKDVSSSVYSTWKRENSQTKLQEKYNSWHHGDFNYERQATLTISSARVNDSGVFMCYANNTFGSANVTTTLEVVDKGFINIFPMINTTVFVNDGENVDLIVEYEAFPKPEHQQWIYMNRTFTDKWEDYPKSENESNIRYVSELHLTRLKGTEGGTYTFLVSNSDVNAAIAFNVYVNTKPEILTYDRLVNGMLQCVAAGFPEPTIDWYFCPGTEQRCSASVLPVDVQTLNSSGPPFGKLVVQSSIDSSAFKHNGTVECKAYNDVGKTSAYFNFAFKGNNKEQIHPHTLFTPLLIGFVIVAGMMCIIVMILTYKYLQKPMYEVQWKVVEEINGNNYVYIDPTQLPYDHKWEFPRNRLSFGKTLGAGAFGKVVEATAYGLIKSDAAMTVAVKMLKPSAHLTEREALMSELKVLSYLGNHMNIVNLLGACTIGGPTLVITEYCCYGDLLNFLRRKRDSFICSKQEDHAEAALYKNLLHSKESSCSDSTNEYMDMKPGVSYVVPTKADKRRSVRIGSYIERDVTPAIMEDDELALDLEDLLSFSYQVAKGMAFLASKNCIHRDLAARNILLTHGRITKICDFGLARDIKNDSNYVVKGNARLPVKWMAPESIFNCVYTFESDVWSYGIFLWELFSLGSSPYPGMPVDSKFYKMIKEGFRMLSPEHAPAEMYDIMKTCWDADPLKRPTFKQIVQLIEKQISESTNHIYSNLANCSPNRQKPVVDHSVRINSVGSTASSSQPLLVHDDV

[6] = dasatinib-corresponding compounds
[7] = imatinib-corresponding compounds

SMILES: COCCOCCOCCOCC(=O)NC(C(=O)OCCN1CCN(c2cc(Nc3ncc(C(=O)Nc4c(C)cccc4Cl)s3)nc(C)n2)CC1)C(C)C (stereo not shown) [mPEG3-Val-Dasatinib]
- IC50 [1]: 0.37 nM
- ABL AVG % Activity at 1.0E−09 [1, 6]: 10%
- ABL AVG % Activity at 1.0E−10 [1, 6]: 85%
- ABL AVG % Activity at 1.0E−11 [1, 6]: 98%
- ABL AVG % Activity at 3.0E−09 [1, 6]: 0%
- ABL AVG % Activity at 3.0E−10 [1, 6]: 54%
- ABL AVG % Activity at 3.0E−11 [1, 6]: 95%

SMILES: COCCOCCOCCOCCOCCNCc1ccc(C(=O)Nc2ccc(C)c(Nc3nccc(-c4cccnc4)n3)c2)cc1 [mPEG5-N-Imatinib]
- solubility [2]: 3400 µg/mL (≈ 5.27 mM)
- Papp A→B at 120 min, 10 μM [3]: 0.05 ± 0.02 ×10⁻⁶ cm/s
- efflux ratio at 120 min, 10 μM ([3]; Caco-2, ratio of B-A and A-B permeabilities, 10 μM, 120 minutes): 560
- IC50 [1]: ≥ 3000 nM
- ABL AVG % Activity at 1.0E−06 ([1]; concentration 1.0E−06, imatinib-corresponding compounds): 74%
- ABL AVG % Activity at 1.0E−07 ([1]; concentration 1.0E−07, imatinib-corresponding compounds): 86%
- ABL AVG % Activity at 1.0E−08 ([1]; concentration 1.0E−08, imatinib-corresponding compounds): 95%
- ABL AVG % Activity at 1.0E−09 [1, 7]: 97%
- ABL AVG % Activity at 1.0E−10 [1, 7]: 96%
- ABL AVG % Activity at 3.0E−06 ([1]; concentration 3.0E−06, imatinib-corresponding compounds): 66%
- ABL AVG % Activity at 3.0E−07 ([1]; concentration 3.0E−07, imatinib-corresponding compounds): 80%
- ABL AVG % Activity at 3.0E−08 ([1]; concentration 3.0E−08, imatinib-corresponding compounds): 92%
- ABL AVG % Activity at 3.0E−09 [1, 7]: 96%
- ABL AVG % Activity at 3.0E−10 [1, 7]: 96%
- IC50 [4]: 220 nM
- PDGFR AVG % Activity at 1.0E−06 ([4]; concentration 1.0E−06): 9%
- PDGFR AVG % Activity at 1.0E−07 ([4]; concentration 1.0E−07): 62%
- PDGFR AVG % Activity at 1.0E−08 ([4]; concentration 1.0E−08): 94%
- PDGFR AVG % Activity at 1.0E−09 ([4]; concentration 1.0E−09): 90%
- PDGFR AVG % Activity at 1.0E−10 ([4]; concentration 1.0E−10): 92%
- PDGFR AVG % Activity at 3.0E−06 ([4]; concentration 3.0E−06): 0%
- PDGFR AVG % Activity at 3.0E−07 ([4]; concentration 3.0E−07): 37%
- PDGFR AVG % Activity at 3.0E−08 ([4]; concentration 3.0E−08): 85%
- PDGFR AVG % Activity at 3.0E−09 ([4]; concentration 3.0E−09): 100%
- PDGFR AVG % Activity at 3.0E−10 ([4]; concentration 3.0E−10): 92%
- IC50 [5]: 440 nM
- C-kit AVG % Activity at 1.0E−05 ([5]; concentration 1.0E−05): 1%
- C-kit AVG % Activity at 1.0E−06 ([5]; concentration 1.0E−06): 28%
- C-kit AVG % Activity at 1.0E−07 ([5]; concentration 1.0E−07): 82%
- C-kit AVG % Activity at 1.0E−08 ([5]; concentration 1.0E−08): 92%
- C-kit AVG % Activity at 3.0E−05 ([5]; concentration 3.0E−05): 0%
- C-kit AVG % Activity at 3.0E−06 ([5]; concentration 3.0E−06): 9%
- C-kit AVG % Activity at 3.0E−07 ([5]; concentration 3.0E−07): 59%
- C-kit AVG % Activity at 3.0E−08 ([5]; concentration 3.0E−08): 91%
- C-kit AVG % Activity at 3.0E−09 ([5]; concentration 3.0E−09): 96%

SMILES: COCCOCCOCCOCCOCCNC(=O)OCCN1CCN(c2cc(Nc3ncc(C(=O)Nc4c(C)cccc4Cl)s3)nc(C)n2)CC1 [mPEG5-NHCOO-Dasatinib]
- IC50 [1]: 0.3 nM
- ABL AVG % Activity at 1.0E−09 [1, 6]: 4%
- ABL AVG % Activity at 1.0E−10 [1, 6]: 80%
- ABL AVG % Activity at 1.0E−11 [1, 6]: 97%
- ABL AVG % Activity at 3.0E−09 [1, 6]: −1%
- ABL AVG % Activity at 3.0E−10 [1, 6]: 45%
- ABL AVG % Activity at 3.0E−11 [1, 6]: 94%

SMILES: COCCOCCOCCOCCOCCN1CCN(Cc2ccc(C(=O)Nc3ccc(C)c(Nc4nccc(-c5cccnc5)n4)c3)cc2)CC1 [mPEG5-N′-Imatinib]
- solubility [2]: 3300 µg/mL (≈ 4.62 mM)
- Papp A→B at 120 min, 10 μM [3]: 1 ± 0.2 ×10⁻⁶ cm/s

SMILES: COCCOCCOCCOCCOCCOCCOCCOCCOCCNC(=O)OCCN1CCN(c2cc(Nc3ncc(C(=O)Nc4c(C)cccc4Cl)s3)nc(C)n2)CC1 [mPEG9-NHCOO-Dasatinib]
- IC50 [1]: 0.31 nM
- ABL AVG % Activity at 1.0E−09 [1, 6]: 4%
- ABL AVG % Activity at 1.0E−10 [1, 6]: 80%
- ABL AVG % Activity at 1.0E−11 [1, 6]: 97%
- ABL AVG % Activity at 3.0E−09 [1, 6]: −1%
- ABL AVG % Activity at 3.0E−10 [1, 6]: 47%
- ABL AVG % Activity at 3.0E−11 [1, 6]: 92%
